Test results published in patent publication US20240123080A1, “CYTOTOXIC COMPOUNDS AND CONJUGATES THEREOF” (Seagen Inc., priority 2022, published 2024).
*1 amine or outer side, *2 acyl side, *3 side chain or, on linkers, in order; H or OH if unused. Where a SMILES comes first, the peptide text is derived from it. [ ]: non-standard residue; d: D form. The star is where a group is joined. ξ: configuration not given here. Dolaproine = CO[C@@H]([C@@H]1CCCN1)[C@@H](C)C(=O)O; Hexanoyl(6-maleimido) = O=C1C=CC(=O)N1CCCCCC(=O)*; Dil = CC[C@H](C)[C@H](NC)[C@@H](CC(=O)O)OC; PABC = O=C(OCc1ccc(N[*:1])cc1)[*:2]; Tyrosinol = OC[C@H](Cc1ccc(O)cc1)N*; Val(3-OH) = CC(C)(O)[C@H](N)C(=O)O; Doe = c1ccc(C[C@H](N*)c2nccs2)cc1; X1 = C[C@@H](N*)[C@@H](O)c1ccccc1; NMeT = CN[C@H](C(=O)O)[C@@H](C)O; Cit = NC(=O)NCCC[C@H](N)C(=O)O; Phe(ol) = N[C@H](CO)Cc1ccccc1; NHPhenethyl = c1ccc(CCN*)cc1; X3 = CN1C(=O)OC[C@@H]1C(=O)*; NMeS = CN[C@@H](CO)C(=O)O; dNMeS = CN[C@H](CO)C(=O)O; ξαMeS = CC(N)(CO)C(=O)O; Dap = NC[C@H](N)C(=O)O; Glycolyl = O=C(CO)*

Legend:
[1] = tested on: Karpas299 NHL; assay: In vitro cytotoxicity, cell proliferation assay (CellTiter-Glo, 96 h); format: cell-based; details: Homo sapiens, KARPAS-299, auristatin free drug
Experimental: (§1) The cytotoxicity of free drugs and drug conjugates were measured by a cell proliferation assay employing the protocol described in Promega Corp. Technical Bulletin TB288; and Mendoza et al., 2002, Cancer Res. 62:5485-5488), the methods of which are specifically incorporated by reference herein. Briefly, an aliquot of 40 μl of cell culture containing about 400 cells in medium is deposited in each well of a 384-well, opaque-walled plate. A 10 μL aliquot of free drug or drug conjugate is added to the experimental wells and incubated for 96 h and are then equilibrated to room temperature for approximately 30 minutes whereupon a volume of CellTiter-Glo™ reagent equal to the volume of cell culture medium present in each well is added. The contents are mixed for 2 minutes on an orbital shaker to induce cell lysis and the plate is incubated at room temperature for 10 minutes to stabilize the luminescence signal for recordation.

[2] = tested on: DEL ALCL; assay: as above; format: cell-based; details: auristatin free drug
Experimental: as §1

[3] = tested on: L540cy HL; assay: as above; format: cell-based; details: auristatin free drug
Experimental: as §1

[4] = LogD, miniaturized 1-octanol/pH 7.4 buffer shake flask method, LC/MS/MS; format: physicochemical
Experimental: The LogD (distribution coefficient) of the compounds was measured using a miniaturized 1-octanol/pH 7.4 buffer shake flask method followed by LC/MS/MS analysis. Values were determined by measuring the compound partitioned in the organic and buffered layers.

[5] = tested on: Sprague Dawley rats; assay: In vivo rat safety study of non-binding (h00) ADCs, hematology and clinical chemistry; details: ADC of the Drug-Linker
Experimental: In vivo rat safety studies were done in naive female Sprague Dawley rats (Envigo). Studies had 3 animals/group/timepoint and included a vehicle control group (1×PBS pH 7.4). Animals were administered a single dose of 15 or 80 mg/kg of an h00 ADC (DAR=4) via intravenous injection. Blood was drawn at days 5 and day 8. Blood was sampled under isoflurane anesthesia via the jugular vein for periodic hematology analysis on the Sysmex XT-2000iV. At necropsy, blood was collected from the caudal vena cava for hematology and clinical chemistry panels. Clinical chemistry was analyzed on a Beckman Coulter AU680.

Row | SMILES | IC50 [1] | IC50 [2] | IC50 [3] | logD [4] | Tolerated at 80 mg/kg in rats [5]
1 | CC[C@H](C)[C@@H]([C@@H](CC(=O)N1CCC[C@H]1[C@H](OC)[C@@H](C)C(=O)N[C@H](CO)Cc1ccccc1)OC)N(C)C(=O)[C@@H](NC(=O)[C@H](CO)NC)C(C)C [Example 12] (H-[NMeS]V[Dil][Dolaproine][Phe(ol)]) | 0.3 nM | 1.1 nM | 4.8 nM | 1.2 | 
2 | CC[C@H](C)[C@@H]([C@@H](CC(=O)N1CCC[C@H]1[C@H](OC)[C@@H](C)C(=O)N[C@H](CO)Cc1ccccc1)OC)N(C)C(=O)[C@@H](NC(=O)[C@@H](NC)[C@@H](C)O)C(C)C [Example 13] (H-[NMeT]V[Dil][Dolaproine][Phe(ol)]) | 2.2 nM | 1.2 nM | 5 nM | 1.4 | 
3 | CC[C@H](C)[C@@H]([C@@H](CC(=O)N1CCC[C@H]1[C@H](OC)[C@@H](C)C(=O)N[C@H](CO)Cc1ccccc1)OC)N(C)C(=O)[C@@H](NC(=O)[C@@H](CO)NC)C(C)C [Example 14] (H-[dNMeS]V[Dil][Dolaproine][Phe(ol)]) | 7.4 nM | 3.5 nM | 10 nM | 1.1 | 
4 | CC[C@H](C)[C@@H]([C@@H](CC(=O)N1CCC[C@H]1[C@H](OC)[C@@H](C)C(=O)N[C@H](C)[C@@H](O)c1ccccc1)OC)N(C)C(=O)[C@@H](NC(=O)[C@H](CO)NC)C(C)C [Example 17] (H-[NMeS]V[Dil][Dolaproine]-X1) | 7.6 nM | 2.5 nM | 16.2 nM | 1.1 | 
5 | CC[C@H](C)[C@@H]([C@@H](CC(=O)N1CCC[C@H]1[C@H](OC)[C@@H](C)C(=O)NCCc1ccccc1)OC)N(C)C(=O)[C@@H](NC(=O)[C@H](CO)NC)C(C)C [Example 18] (H-[NMeS]V[Dil][Dolaproine]-NHPhenethyl) | 2.3 nM | 0.6 nM | 16 nM | 1.9 | 
6 | CC[C@H](C)[C@@H]([C@@H](CC(=O)N1CCC[C@H]1[C@H](OC)[C@@H](C)C(=O)N[C@@H](Cc1ccccc1)c1nccs1)OC)N(C)C(=O)[C@@H](NC(=O)[C@H](CO)NC)C(C)C [Example 19] (H-[NMeS]V[Dil][Dolaproine]-Doe) | 0.5 nM | 0.4 nM | 2.5 nM | 2.4 | 
7 | CC[C@H](C)[C@@H]([C@@H](CC(=O)N1CCC[C@H]1[C@H](OC)[C@@H](C)C(=O)N[C@@H](Cc1ccccc1)c1nccs1)OC)N(C)C(=O)[C@@H](NC(=O)[C@H](CO)NC)[C@@H](C)CC [Example 20] (H-[NMeS]I[Dil][Dolaproine]-Doe) | 1 nM | 0.3 nM | 4.7 nM | 1.9 | 
8 | CC[C@H](C)[C@@H]([C@@H](CC(=O)N1CCC[C@H]1[C@H](OC)[C@@H](C)C(=O)N[C@H](C)[C@@H](O)c1ccccc1)OC)N(C)C(=O)[C@@H](NC(=O)[C@@H](N)C(C)(C)O)C(C)C [Example 28] (H-[Val(3-OH)]V[Dil][Dolaproine]-X1) | 9.4 nM | 7.8 nM | 28 nM | 2 | 
9 | CC[C@H](C)[C@@H]([C@@H](CC(=O)N1CCC[C@H]1[C@H](OC)[C@@H](C)C(=O)N[C@H](CO)Cc1ccccc1)OC)N(C)C(=O)[C@@H](NC(=O)[C@@H](N)C(C)(C)O)C(C)C [Example 29] (H-[Val(3-OH)]V[Dil][Dolaproine][Phe(ol)]) | 13.7 nM | 12.7 nM | 58 nM | 2 | 
10 | CC[C@H](C)[C@@H]([C@@H](CC(=O)N1CCC[C@H]1[C@H](OC)[C@@H](C)C(=O)N[C@H](CO)Cc1ccc(O)cc1)OC)N(C)C(=O)[C@@H](NC(=O)[C@@H](N)C(C)(C)O)C(C)C [Example 30] (H-[Val(3-OH)]V[Dil][Dolaproine]-Tyrosinol) | 481 nM | 396 nM | > 1000 nM | 1.2 | 
11 | CC[C@H](C)[C@@H]([C@@H](CC(=O)N1CCC[C@H]1[C@H](OC)[C@@H](C)C(=O)N[C@@H](Cc1ccccc1)c1nccs1)OC)N(C)C(=O)[C@@H](NC(=O)[C@@H](N)C(C)(C)O)C(C)C [Example 31] (H-[Val(3-OH)]V[Dil][Dolaproine]-Doe) | 1.7 nM | 2.1 nM | 4.7 nM | 3.4 | 
12 | CC[C@H](C)[C@@H]([C@@H](CC(=O)N1CCC[C@H]1[C@H](OC)[C@@H](C)C(=O)N[C@H](C)[C@@H](O)c1ccccc1)OC)N(C)C(=O)[C@@H](NC(=O)C[C@@H](N)CO)C(C)C [Example 32] | 56 nM | 64 nM | 920 nM | 0.3 | 
13 | CC[C@H](C)[C@@H]([C@@H](CC(=O)N1CCC[C@H]1[C@H](OC)[C@@H](C)C(=O)N[C@H](C)[C@@H](O)c1ccccc1)OC)N(C)C(=O)[C@@H](NC(=O)C(C)(N)CO)C(C)C (stereo partly drawn) [Example 33] (H-[ξαMeS]V[Dil][Dolaproine]-X1) | 1.7 nM | 1.8 nM | 6.4 nM | 3.2 | 
14 | CC[C@H](C)[C@@H]([C@@H](CC(=O)N1CCC[C@H]1[C@H](OC)[C@@H](C)C(=O)N[C@H](CO)Cc1ccccc1)OC)N(C)C(=O)[C@@H](NC(=O)[C@H]1COC(=O)N1C)C(C)C [Example 45] (X3-V[Dil][Dolaproine][Phe(ol)]) | 40.8 nM | 8.5 nM | 272 nM | 1.5 | 
15 | CC[C@H](C)[C@@H]([C@@H](CC(=O)N1CCC[C@H]1[C@H](OC)[C@@H](C)C(=O)N[C@H](CO)Cc1ccccc1)OC)N(C)C(=O)[C@@H](NC(=O)[C@@H](N)CNC(=O)CO)C(C)C [Example 51] (H-[Dap](Glycolyl)V[Dil][Dolaproine][Phe(ol)]) | 224 nM | 93 nM | > 1000 nM |  | 
16 | CC[C@H](C)[C@@H]([C@@H](CC(=O)N1CCC[C@H]1[C@H](OC)[C@@H](C)C(=O)NC(CO)Cc1nccs1)OC)N(C)C(=O)[C@@H](NC(=O)[C@H](CO)N(C)C)C(C)C (stereo partly drawn) [Example 52] | 58 nM | 43 nM | 438 nM |  | 
17 | CC[C@H](C)[C@@H]([C@@H](CC(=O)N1CCC[C@H]1[C@H](OC)[C@@H](C)C(=O)NC(CO)Cn1ccnn1)OC)N(C)C(=O)[C@@H](NC(=O)[C@H](CO)N(C)C)C(C)C (stereo partly drawn) [Example 53] | > 1000 nM | > 1000 nM | > 1000 nM |  | 
18 | CC[C@H](C)[C@@H]([C@@H](CC(=O)N1CCC[C@H]1[C@H](OC)[C@@H](C)C(=O)NC(CCO)Cc1ccccc1)OC)N(C)C(=O)[C@@H](NC(=O)[C@H](CO)N(C)C)C(C)C (stereo partly drawn) [Example 54] | 6 nM | 7 nM | 274 nM |  | 
19 | CC[C@H](C)[C@@H]([C@@H](CC(=O)N1CCC[C@H]1[C@H](OC)[C@@H](C)C(=O)NC(Cc1ccccc1)c1cccs1)OC)N(C)C(=O)[C@@H](NC(=O)[C@H](CO)N(C)C)C(C)C (stereo partly drawn) [Example 55] | 1 nM | 0.8 nM | 16 nM |  | 
20 | CC[C@H](C)[C@@H]([C@@H](CC(=O)N1CCC[C@H]1[C@H](OC)[C@@H](C)C(=O)NC(Cc1ccccc1)c1ncco1)OC)N(C)C(=O)[C@@H](NC(=O)[C@H](CO)N(C)C)C(C)C (stereo partly drawn) [Example 56] | 0.9 nM | 1 nM | 24 nM |  | 
21 | CC[C@H](C)[C@@H]([C@@H](CC(=O)N1CCC[C@H]1[C@H](OC)[C@@H](C)C(=O)N[C@@H](Cc1ccccc1)[C@@H](O)CO)OC)N(C)C(=O)[C@@H](NC(=O)[C@H](CO)N(C)C)C(C)C [Example 57] | 3 nM | 4 nM | 49 nM |  | 
22 | CC[C@H](C)[C@@H]([C@@H](CC(=O)N1CCC[C@H]1[C@H](OC)[C@@H](C)C(=O)N[C@H](CO)Cc1ccccc1)OC)N(C)C(=O)[C@@H](NC(=O)[C@H](CO)N(C)C(=O)OCc1ccc(NC(=O)[C@H](CCCNC(N)=O)NC(=O)[C@@H](NC(=O)CCCCCN2C(=O)C=CC2=O)C(C)C)cc1)C(C)C [Example 61] ({Hexanoyl(6-maleimido)}-V[Cit][PABC][NMeS]V[Dil][Dolaproine][Phe(ol)]) |  |  |  |  | Yes
